Source: ChEMBL document CHEMBL3885881, “DrugMatrix”

Species: Rattus norvegicus
Test: DrugMatrix - Regimen: Daily Repeat
Type: toxicity, organism-based, Sprague-Dawley
Set-up: regimen Daily Repeat, gender Male, age 6-8 weeks
Conditions: in vivo, po, route oral GAVAGE; for ALANINE AMINOTRANSFERASE / ALBUMIN / ALKALINE PHOSPHATASE / ASPARTATE AMINOTRANSFERASE / BLOOD UREA NITROGEN / CARBON DIOXIDE / CHLORIDE / CHOLESTEROL / CREATININE / GLUCOSE / LIPASE / PHOSPHORUS / POTASSIUM / SODIUM / TOTAL BILIRUBIN / CREATINE PHOSPHOKINASE / LACTATE DEHYDROGENASE / TOTAL PROTEIN / URIC ACID: tissue Plasma; for ABSOLUTE BASOPHIL / ABSOLUTE EOSINOPHIL / ABSOLUTE LYMPHOCYTE / ABSOLUTE MONOCYTE / ABSOLUTE SEGMENTED NEUTROPHIL / BASOPHIL / EOSINOPHIL / ERYTHROCYTE COUNT / HEMATOCRIT / HEMOGLOBIN / LEUKOCYTE COUNT / LYMPHOCYTE / MEAN CORPUSCULAR HEMOGLOBIN / MEAN CORPUSCULAR HEMOGLOBIN CONCENTRATION / MEAN CORPUSCULAR VOLUME / MONOCYTE / NEUTROPHIL / NUCLEATED RED BLOOD CELLS / PLATELET COUNT: tissue Blood
[1] = 7 mg/kg, 96 h, dose level M1, time 4 day, […]
[2] = 12 mg/kg, 72 h, dose level High, time 3 day, vehicle 100 % WATER
[3] = 12 mg/kg, 120 h, dose level High, time 5 day, vehicle 100 % WATER
[4] = […], 72 h, dose 9.6 mg/Kg, dose level M1, time 3 day, vehicle 100 % WATER
[5] = […], 120 h, dose 9.6 mg/Kg, dose level M1, time 5 day, vehicle 100 % WATER

SMILES: COc1ccc2c(c1)c(CC(=O)O)c(C)n2C(=O)c1ccc(Cl)cc1 [INDOMETHACIN]
- ALANINE AMINOTRANSFERASE [1]: 65.33 u/L
- ALBUMIN [1]: 2.67 G/DL
- ALKALINE PHOSPHATASE [1]: 487 u/L
- ASPARTATE AMINOTRANSFERASE [1]: 260 u/L
- BLOOD UREA NITROGEN [1]: 49.33 mg/dL
- CARBON DIOXIDE [1]: 24.3 mmol/L
- CHLORIDE [1]: 100 MEQ/L
- CHOLESTEROL [1]: 61.33 mg/dL
- CREATININE [1]: 0.3 mg/dL
- GLUCOSE [1]: 83 mg/dL
- LIPASE [1]: 296.67 u/L
- PHOSPHORUS [1]: 8.35 mg/dL
- POTASSIUM [1]: 5.5 MEQ/L
- SODIUM [1]: 138 MEQ/L
- TOTAL BILIRUBIN [1]: 0.09 mg/dL
- ABSOLUTE BASOPHIL [2]: 0 CELLS/uL
- ABSOLUTE EOSINOPHIL [2]: 64 CELLS/uL
- ABSOLUTE LYMPHOCYTE [2]: 7403 CELLS/uL
- ABSOLUTE MONOCYTE [2]: 98 CELLS/uL
- ABSOLUTE SEGMENTED NEUTROPHIL [2]: 468.33 CELLS/uL
- BASOPHIL [2]: 0%
- EOSINOPHIL [2]: 0.67%
- ERYTHROCYTE COUNT [2]: 2.59 x10E6/uL
- HEMATOCRIT [2]: 16.8%
- HEMOGLOBIN [2]: 6.83 G/DL
- LEUKOCYTE COUNT [2]: 8.03 x10E3/uL
- LYMPHOCYTE [2]: 93.33%
- MEAN CORPUSCULAR HEMOGLOBIN [2]: 26.43 pg
- MEAN CORPUSCULAR HEMOGLOBIN CONCENTRATION [2]: 40.53 G/DL
- MEAN CORPUSCULAR VOLUME [2]: 65.07 fL
- MONOCYTE [2]: 1%
- NEUTROPHIL [2]: 5%
- NUCLEATED RED BLOOD CELLS [2]: 2.67 /100WBC
- PLATELET COUNT [2]: 714.67 x10E3/uL
- ALANINE AMINOTRANSFERASE [2]: 21 u/L
- ALBUMIN [2]: 1.93 G/DL
- ALKALINE PHOSPHATASE [2]: 177.67 u/L
- ASPARTATE AMINOTRANSFERASE [2]: 46.33 u/L
- BLOOD UREA NITROGEN [2]: 15.33 mg/dL
- CARBON DIOXIDE [2]: 27 mmol/L
- CHLORIDE [2]: 104.33 MEQ/L
- CHOLESTEROL [2]: 69.67 mg/dL
- CREATINE PHOSPHOKINASE [2]: 148.33 u/L
- CREATININE [2]: 0.1 mg/dL
- GLUCOSE [2]: 146.67 mg/dL
- LACTATE DEHYDROGENASE [2]: 36 u/L
- LIPASE [2]: 8.33 u/L
- PHOSPHORUS [2]: 11 mg/dL
- POTASSIUM [2]: 4.8 MEQ/L
- SODIUM [2]: 143.4 MEQ/L
- TOTAL BILIRUBIN [2]: 0.1 mg/dL
- TOTAL PROTEIN [2]: 4.5 G/DL
- URIC ACID [2]: 0.53 mg/dL
- ABSOLUTE BASOPHIL [3]: 0 CELLS/uL
- ABSOLUTE EOSINOPHIL [3]: 18.5 CELLS/uL
- ABSOLUTE LYMPHOCYTE [3]: 2977 CELLS/uL
- ABSOLUTE MONOCYTE [3]: 109 CELLS/uL
- ABSOLUTE SEGMENTED NEUTROPHIL [3]: 495.5 CELLS/uL
- BASOPHIL [3]: 0%
- EOSINOPHIL [3]: 0.5%
- ERYTHROCYTE COUNT [3]: 3.63 x10E6/uL
- HEMATOCRIT [3]: 21.7%
- HEMOGLOBIN [3]: 9.1 G/DL
- LEUKOCYTE COUNT [3]: 3.6 x10E3/uL
- LYMPHOCYTE [3]: 83%
- MEAN CORPUSCULAR HEMOGLOBIN [3]: 25 pg
- MEAN CORPUSCULAR HEMOGLOBIN CONCENTRATION [3]: 41.8 G/DL
- MEAN CORPUSCULAR VOLUME [3]: 59.9 fL
- MONOCYTE [3]: 3%
- NEUTROPHIL [3]: 13.5%
- NUCLEATED RED BLOOD CELLS [3]: 1.5 /100WBC
- PLATELET COUNT [3]: 1098.5 x10E3/uL
- ALANINE AMINOTRANSFERASE [3]: 17 u/L
- ALBUMIN [3]: 2.1 G/DL
- ALKALINE PHOSPHATASE [3]: 366 u/L
- ASPARTATE AMINOTRANSFERASE [3]: 84 u/L
- BLOOD UREA NITROGEN [3]: 37 mg/dL
- CARBON DIOXIDE [3]: 26 mmol/L
- CHLORIDE [3]: 108 MEQ/L
- CHOLESTEROL [3]: 66 mg/dL
- CREATINE PHOSPHOKINASE [3]: 224 u/L
- CREATININE [3]: 0.1 mg/dL
- GLUCOSE [3]: 132.5 mg/dL
- LACTATE DEHYDROGENASE [3]: 83.5 u/L
- LIPASE [3]: 12.5 u/L
- PHOSPHORUS [3]: 11.15 mg/dL
- POTASSIUM [3]: 5.62 MEQ/L
- SODIUM [3]: 146.9 MEQ/L
- TOTAL BILIRUBIN [3]: 0.15 mg/dL
- TOTAL PROTEIN [3]: 4.7 G/DL
- URIC ACID [3]: 0.45 mg/dL
- ABSOLUTE BASOPHIL [4]: 0 CELLS/uL
- ABSOLUTE EOSINOPHIL [4]: 39.33 CELLS/uL
- ABSOLUTE LYMPHOCYTE [4]: 13009.33 CELLS/uL
- ABSOLUTE MONOCYTE [4]: 145.33 CELLS/uL
- ABSOLUTE SEGMENTED NEUTROPHIL [4]: 3406 CELLS/uL
- BASOPHIL [4]: 0%
- EOSINOPHIL [4]: 0.33%
- ERYTHROCYTE COUNT [4]: 4.19 x10E6/uL
- HEMATOCRIT [4]: 26.67%
- HEMOGLOBIN [4]: 10.63 G/DL
- LEUKOCYTE COUNT [4]: 16.6 x10E3/uL
- LYMPHOCYTE [4]: 78.33%
- MEAN CORPUSCULAR HEMOGLOBIN [4]: 25.53 pg
- MEAN CORPUSCULAR HEMOGLOBIN CONCENTRATION [4]: 40 G/DL
- MEAN CORPUSCULAR VOLUME [4]: 63.8 fL
- MONOCYTE [4]: 1%
- NEUTROPHIL [4]: 20.33%
- NUCLEATED RED BLOOD CELLS [4]: 0 /100WBC
- PLATELET COUNT [4]: 984.67 x10E3/uL
- ALANINE AMINOTRANSFERASE [4]: 50.33 u/L
- ALBUMIN [4]: 3.17 G/DL
- ALKALINE PHOSPHATASE [4]: 197.33 u/L
- ASPARTATE AMINOTRANSFERASE [4]: 77.33 u/L
- BLOOD UREA NITROGEN [4]: 13.33 mg/dL
- CARBON DIOXIDE [4]: 26 mmol/L
- CHLORIDE [4]: 102.67 MEQ/L
- CHOLESTEROL [4]: 72.33 mg/dL
- CREATINE PHOSPHOKINASE [4]: 564.67 u/L
- CREATININE [4]: 0.3 mg/dL
- GLUCOSE [4]: 162.33 mg/dL
- LACTATE DEHYDROGENASE [4]: 111.33 u/L
- LIPASE [4]: 11.67 u/L
- PHOSPHORUS [4]: 10.83 mg/dL
- POTASSIUM [4]: 5.33 MEQ/L
- SODIUM [4]: 141.3 MEQ/L
- TOTAL BILIRUBIN [4]: 0.1 mg/dL
- TOTAL PROTEIN [4]: 5.07 G/DL
- URIC ACID [4]: 1.23 mg/dL
- ABSOLUTE BASOPHIL [5]: 0 CELLS/uL
- ABSOLUTE EOSINOPHIL [5]: 0 CELLS/uL
- ABSOLUTE LYMPHOCYTE [5]: 4773 CELLS/uL
- ABSOLUTE MONOCYTE [5]: 34 CELLS/uL
- ABSOLUTE SEGMENTED NEUTROPHIL [5]: 943 CELLS/uL
- BASOPHIL [5]: 0%
- EOSINOPHIL [5]: 0%
- ERYTHROCYTE COUNT [5]: 4.33 x10E6/uL
- HEMATOCRIT [5]: 26.75%
- HEMOGLOBIN [5]: 10.7 G/DL
- LEUKOCYTE COUNT [5]: 5.75 x10E3/uL
- LYMPHOCYTE [5]: 81%
- MEAN CORPUSCULAR HEMOGLOBIN [5]: 24.7 pg
- MEAN CORPUSCULAR HEMOGLOBIN CONCENTRATION [5]: 40 G/DL
- MEAN CORPUSCULAR VOLUME [5]: 61.75 fL
- MONOCYTE [5]: 0.5%
- NEUTROPHIL [5]: 18.5%
- NUCLEATED RED BLOOD CELLS [5]: 1 /100WBC
- PLATELET COUNT [5]: 1266.5 x10E3/uL
- ALANINE AMINOTRANSFERASE [5]: 53.5 u/L
- ALBUMIN [5]: 3 G/DL
- ALKALINE PHOSPHATASE [5]: 320 u/L
- ASPARTATE AMINOTRANSFERASE [5]: 129 u/L
- BLOOD UREA NITROGEN [5]: 45 mg/dL
- CARBON DIOXIDE [5]: 33 mmol/L
- CHLORIDE [5]: 92.5 MEQ/L
- CHOLESTEROL [5]: 60.5 mg/dL
- CREATINE PHOSPHOKINASE [5]: 215 u/L
- CREATININE [5]: 0.32 mg/dL
- GLUCOSE [5]: 131 mg/dL
- LACTATE DEHYDROGENASE [5]: 112.5 u/L
- LIPASE [5]: 24.5 u/L
- PHOSPHORUS [5]: 11.45 mg/dL
- POTASSIUM [5]: 5.66 MEQ/L
- SODIUM [5]: 139.9 MEQ/L
- TOTAL BILIRUBIN [5]: 0.15 mg/dL
- TOTAL PROTEIN [5]: 5.8 G/DL
- URIC ACID [5]: 1.05 mg/dL
